{"source": "patent US20240197761A1", "about": "“FUCOSYLATION AND IMMUNE MODULATION IN CANCER” (H. LEE MOFFITT CANCER CENTER AND RESEARCH INSTITUTE, INC., priority 2021, published 2024)", "test_system": "SM1 tumors", "assay": "Anti-PD-1 mouse model, SM1: tumor growth and flow cytometric profiling of tumors and draining lymph nodes (Table 2)", "format": "in vivo, C57BL/6 mice", "description": "FIGS. 21A and 21B Administration of combination L-fucose and anti-PD-1 suppresses tumors and increases intra-tumoral CD4+T central and effector memory cells (a) Volumetric growth curves for SW1 tumors in C3H/HeN mice (left) and SM1 tumors in C57BL/6 mice (right) fed L-fucose (LF) and treated with PBS (control) or anti-PD-1. (concurrent initiation of LF anti-PD1 (▾)). The tumor growth curves are means±SEM from ≥7 mice per group. (b) Volumetric growth curves for SM1 tumors in C57BL/6 mice fed ±L-fucose (LF) and treated with PBS (control) or anti-PD-1 (PD-1). (concurrent initiation of LF±PD1 (▾)). The tumor growth curves are means±SEM from ≥7 mice per group. *=p<0.05. At Day 7 (prior to administration of LF or PD1), Day 21 (endpoint for tumors of control-treated mice), Day 31 (endpoint for tumors of LF-treated mice), Day 63 (endpoint for tumors of PD1-treated mice), the primary tumors (Tumor) and draining lymph nodes (LN) of 4-5 mice per treatment group were analyzed by flow cytometry for intratumor levels of CD4+ and CD8+T subpopulations (naive/terminal, stem central/central/effector memory) and dendritic cell (DC) subpopulations (cDC1, cDC2, and monocyte-derived DC (moDC)) as in FIG. 15. Proportions of CD4+, CD8+, and DC subpopulations in each organ at each timepoints are represented by the color-coded pie charts (each pie chart represents 4-5 mice). Absolute numbers of the subpopulations per […] of tumor/tissue homogenate at each timepoint are represented in the color-coded column charts.\nTumors of SW1 or SM1 melanoma cells from […] or C57BL/6 mice, respectively) were digested using 1× tumor digest buffer (0.5 mg/mL Collagenase I, 0.5 mg/mL Collagenase IV, 0.25 mg/mL Hyalyronidase V, 0.1 mg/mL DNAse I in HBSS (Millipore Sigma (St. Louis, MO)). Tumors were homogenized using the Miltenyi MACs dissociator. Red blood cells were lysed using ACK lysis buffer (Life Technologies, (Grand Island, NY)). Tumor homogenate cells were counted using a standard hemocytometer.\nTotal TILs were gated first to single cells (based on forward scatter height vs width, followed by side scatter height vs. width). Live cells were gated from the Zombie negative population from the population above. TILs were gated based on splenocyte size from a control spleen. Individual immune subpopulations were sub-gated from the total TIL population using the following staining criteria: CD3+ for CD3+ T cells; CD3+/CD4+/CD8− for CD4+T cells; CD3+/CD4−/CD8+ for CD8+ T cells, CD11c+/CD11b+ for DCs; either NK1.1 (for C57/BL6 mice) or DX5 (for C3H/HeJ) for NK cells; CD11b+/GR1+ for MDSC-like cells; and F4/80+ for macrophages. Single-cell suspensions from tumor and spleen tissue were stained with Live/Dead Zombie NIR (Biolegend, (San Diego, CA)) at 1:1,000 in PBS for 20 min. Cell suspensions were spun down and stained with the following with antibodies at 0.5 μg/ml per antibody: APC anti-mouse CD3, Pacific Blue anti-mouse CD4, BV785 anti-mouse CD8, PerCP anti-mouse CD25, FITC anti-mouse F4/80, PeCy7 anti-mouse CD11c, PE anti-mouse NK1.1 or PE anti-mouse DX5, and PerCP-Cy5.5 anti-mouse CD11 b. After staining, the cells were washed and fixed (2% formaldehyde), followed by another wash and flow cytometric analysis. The compensation controls were prepared using 0.5 μg/mL of each antibody with UltraComp eBeads, (ThermoFisher Scientific (Waltham, MA)). All samples were subject to flow cytometric profiling using a LSR Flow Cytometer (BD Biosciences (San Jose, CA)) and analysis as indicated using FlowJo software (BD Biosciences (San Jose, CA)).\nSW1 or SM1 mouse melanoma cells were injected into syngeneic C3H/HeN female or C57BL/6 male mice, respectively. After approximately 7 days, when the mice tumors reached −150 mm^3, the mice were either supplemented with or without 100 mM L-fucose (Biosynth (Oak Terrace, IL)) via drinking water, which was provided ad libitum. […]"}
{"molecule": "C[C@H](O)[C@@H](O)[C@@H](O)[C@H](O)C=O", "note": "[L-fucose]", "values": [{"measurement": "CD4 central memory, average # of cells", "setting": "Day 21, lymph nodes", "result": "592.12 per 10^6 cells of total tumor"}, {"measurement": "CD4 effector memory, average # of cells", "setting": "Day 21, lymph nodes", "result": "1155.12 per 10^6 cells of total tumor"}, {"measurement": "CD4 naïve, average # of cells", "setting": "Day 21, lymph nodes", "result": "24832.36 per 10^6 cells of total tumor"}, {"measurement": "CD4 stem central memory, average # of cells", "setting": "Day 21, lymph nodes", "result": "512.17 per 10^6 cells of total tumor"}, {"measurement": "CD8 central memory, average # of cells", "setting": "Day 21, lymph nodes", "result": "1017.54 per 10^6 cells of total tumor"}, {"measurement": "CD8 effector memory, average # of cells", "setting": "Day 21, lymph nodes", "result": "4093.80 per 10^6 cells of total tumor"}, {"measurement": "CD8 naïve, average # of cells", "setting": "Day 21, lymph nodes", "result": "11896.39 per 10^6 cells of total tumor"}, {"measurement": "CD8 stem central memory, average # of cells", "setting": "Day 21, lymph nodes", "result": "192.89 per 10^6 cells of total tumor"}, {"measurement": "cDC1, average # of cells", "setting": "Day 21, lymph nodes", "result": "9395.57 per 10^6 cells of total tumor"}, {"measurement": "cDC2, average # of cells", "setting": "Day 21, lymph nodes", "result": "13997.11 per 10^6 cells of total tumor"}, {"measurement": "moDC, average # of cells", "setting": "Day 21, lymph nodes", "result": "1788.45 per 10^6 cells of total tumor"}, {"measurement": "CD4+ CRTAM+, average # of cells", "setting": "Day 21, tumors", "result": "361.60 per 10^6 cells of total tumor"}, {"measurement": "CD4 central memory, average # of cells", "setting": "Day 21, tumors", "result": "19.50 per 10^6 cells of total tumor"}, {"measurement": "CD4 effector memory, average # of cells", "setting": "Day 21, tumors", "result": "302.98 per 10^6 cells of total tumor"}, {"measurement": "CD4 naïve, average # of cells", "setting": "Day 21, tumors", "result": "186.42 per 10^6 cells of total tumor"}, {"measurement": "CD4 stem central memory, average # of cells", "setting": "Day 21, tumors", "result": "3.22 per 10^6 cells of total tumor"}, {"measurement": "CD8+ GRZB+, average # of cells", "setting": "Day 21, tumors", "result": "14146.30 per 10^6 cells of total tumor"}, {"measurement": "CD8 central memory, average # of cells", "setting": "Day 21, tumors", "result": "25.37 per 10^6 cells of total tumor"}, {"measurement": "CD8 effector memory, average # of cells", "setting": "Day 21, tumors", "result": "889.74 per 10^6 cells of total tumor"}, {"measurement": "CD8 naïve, average # of cells", "setting": "Day 21, tumors", "result": "81.09 per 10^6 cells of total tumor"}, {"measurement": "CD8 stem central memory, average # of cells", "setting": "Day 21, tumors", "result": "1.53 per 10^6 cells of total tumor"}, {"measurement": "cDC1, average # of cells", "setting": "Day 21, tumors", "result": "2032.24 per 10^6 cells of total tumor"}, {"measurement": "cDC2, average # of cells", "setting": "Day 21, tumors", "result": "12762.45 per 10^6 cells of total tumor"}, {"measurement": "moDC, average # of cells", "setting": "Day 21, tumors", "result": "570.99 per 10^6 cells of total tumor"}, {"measurement": "CD4 central memory, average # of cells", "setting": "Day 31, lymph nodes", "result": "424.67 per 10^6 cells of total tumor"}, {"measurement": "CD4 effector memory, average # of cells", "setting": "Day 31, lymph nodes", "result": "6638.79 per 10^6 cells of total tumor"}, {"measurement": "CD4 naïve, average # of cells", "setting": "Day 31, lymph nodes", "result": "30715.03 per 10^6 cells of total tumor"}, {"measurement": "CD4 stem central memory, average # of cells", "setting": "Day 31, lymph nodes", "result": "408.72 per 10^6 cells of total tumor"}, {"measurement": "CD8 central memory, average # of cells", "setting": "Day 31, lymph nodes", "result": "286.54 per 10^6 cells of total tumor"}, {"measurement": "CD8 effector memory, average # of cells", "setting": "Day 31, lymph nodes", "result": "2478.29 per 10^6 cells of total tumor"}, {"measurement": "CD8 naïve, average # of cells", "setting": "Day 31, lymph nodes", "result": "12415.41 per 10^6 cells of total tumor"}, {"measurement": "CD8 stem central memory, average # of cells", "setting": "Day 31, lymph nodes", "result": "56.84 per 10^6 cells of total tumor"}, {"measurement": "cDC1, average # of cells", "setting": "Day 31, lymph nodes", "result": "5781.73 per 10^6 cells of total tumor"}, {"measurement": "cDC2, average # of cells", "setting": "Day 31, lymph nodes", "result": "22628.85 per 10^6 cells of total tumor"}, {"measurement": "moDC, average # of cells", "setting": "Day 31, lymph nodes", "result": "7315.56 per 10^6 cells of total tumor"}, {"measurement": "CD4+ CRTAM+, average # of cells", "setting": "Day 31, tumors", "result": "112.92 per 10^6 cells of total tumor"}, {"measurement": "CD4 central memory, average # of cells", "setting": "Day 31, tumors", "result": "28.68 per 10^6 cells of total tumor"}, {"measurement": "CD4 effector memory, average # of cells", "setting": "Day 31, tumors", "result": "297.82 per 10^6 cells of total tumor"}, {"measurement": "CD4 naïve, average # of cells", "setting": "Day 31, tumors", "result": "401.23 per 10^6 cells of total tumor"}, {"measurement": "CD4 stem central memory, average # of cells", "setting": "Day 31, tumors", "result": "6.29 per 10^6 cells of total tumor"}, {"measurement": "CD8+ GRZB+, average # of cells", "setting": "Day 31, tumors", "result": "5679.05 per 10^6 cells of total tumor"}, {"measurement": "CD8 central memory, average # of cells", "setting": "Day 31, tumors", "result": "26.40 per 10^6 cells of total tumor"}, {"measurement": "CD8 effector memory, average # of cells", "setting": "Day 31, tumors", "result": "202.98 per 10^6 cells of total tumor"}, {"measurement": "CD8 naïve, average # of cells", "setting": "Day 31, tumors", "result": "223.96 per 10^6 cells of total tumor"}, {"measurement": "CD8 stem central memory, average # of cells", "setting": "Day 31, tumors", "result": "3.15 per 10^6 cells of total tumor"}, {"measurement": "cDC1, average # of cells", "setting": "Day 31, tumors", "result": "200.82 per 10^6 cells of total tumor"}, {"measurement": "cDC2, average # of cells", "setting": "Day 31, tumors", "result": "5753.01 per 10^6 cells of total tumor"}, {"measurement": "moDC, average # of cells", "setting": "Day 31, tumors", "result": "1107.62 per 10^6 cells of total tumor"}, {"measurement": "intratumoral CD4+T central and effector memory cells", "setting": "L-fuc alone (FIG. 21b)", "result": "increased"}, {"measurement": "tumor suppression in combination with anti-PD1", "setting": "SM1 model", "result": "augmented durable suppression"}, {"measurement": "tumor suppression, single agent", "setting": "SM1 model (FIG. 21a right)", "result": "less tumor suppressive than anti-PD1 alone"}]}
